In patent publication US7803619B2, “Embryoid body-based screen” (Geneprotech, Inc., priority 2004, dated 2010):

Columns and labels:
[1] = tested on: EB from ES cell line (ES-6) containing necdin-puromycin-IRES-β-galactosidase cassette; test: Embryoid body neurogenesis screen: necdin promoter-driven β-galactosidase expression; format: cell-based, mouse; conditions: 48 h exposure
Experimental: A brief description of the procedure follows. A tagged ES cell line containing a stably integrated necdin-puromycin-IRES-β-galactosidase cassette was allowed to form EBs. One thousand cells in 200 μl media without LIF were plated in a 96-well PCR plate. On the third day, the EBs were transferred to a 96-well tissue culture plate coated with laminin. The medium was changed on the fourth day and appropriate small molecule compounds were added with each compound being assessed in triplicate. Six wells received no treatment and six wells received treatment with vehicle control (DMSO or ethanol diluted in similar manner as small molecule compounds). The cells were incubated with compounds for 48 hours, compounds removed by washing with PBS and cells allowed to grow and differentiate in media for 4 days. Cells were lysed on the fifth day and the lysates were analyzed for β-galactosidase expression. […] Two positive controls, 50 ng/ml nerve growth factor (NGF) and 1 uM retinoic acid (RA) (Sigma Chemical, St. Louis) and small molecule compounds (piperine, curcumin, rosmarinic acid, U0126, LY294002) were used for screening. Fold increase was calculated based on the respective vehicle control […] activity. […] This is not surprising since NGF is a stronger neurogenic growth factor than is RA. […]
An ES cell line (ES-6; Preliminary Studies Section C.2.) containing a stably integrated necdin-puromycin-IRES-β-galactosidase cassette was allowed to form EB. […] The medium was changed on the fourth day and appropriate small molecule compounds were added with each compound being assessed in triplicate. […] Cells were lysed on the fifth day and the lysates were analyzed for β-galactosidase expression. […] Fold increase was calculated based on the respective vehicle control β-galactosidase activity. […]
After addition of puromycin to the media, neuronal cells are the anticipated survivors and other cell types are expected to be eliminated. Since activity of the necdin promoter confers β-galactosidase expression, a quantitative measurement of β-galactosidase activity is performed. […]

[2] = tested on: endothelial cell culture system; conditions: cited from earlier work
chorioallantoic membrane = conditions: cited from earlier work
EB = conditions: cited from earlier work
murine ES cells = conditions: cited from earlier work
[3] = tested on: myeloid leukemia HL60 cells; conditions: cited from earlier work

Compound: CC1=C(/C=C/C(C)=C/C=C/C(C)=C/C(=O)O)C(C)(C)CCC1 [RA, retinoic acid]
- Fold increase in neurogenesis (β-galactosidase activity relative to respective vehicle control) ([1]; positive control, 1 uM): 11 fold

Compound: O=C(/C=C/C=C/c1ccc2c(c1)OCO2)N1CCCCC1 [piperine]
- Fold increase in neurogenesis (β-galactosidase activity relative to respective vehicle control) ([1]; small molecule compound at 10 μM, lysed on fifth day after removal): 3.3 fold

Compound: O=C1CCC(N2C(=O)c3ccccc3C2=O)C(=O)N1 (centres unmarked) [thalidomide]
- Anti-angiogenic effect [2]: no anti-angiogenic effect
- Anti-angiogenic effect (chorioallantoic membrane): no anti-angiogenic effect
- Anti-angiogenic effect (EB): had anti-angiogenic effect

Compound: O=C1O[C@H]([C@@H](O)CO)C(O)=C1O [vitamin C, ascorbic acid]
- Number of cardiac myocytes showing rhythmic contractile activity, positive for sarcomeric myosin and alpha-actinin (murine ES cells): markedly increased

Compound: boswellic acid acetate
- Differentiation into monocyte-like cells [3]: induces differentiation

Compound: nerve growth factor [NGF]
- Fold increase in neurogenesis (β-galactosidase activity relative to respective vehicle control) ([1]; positive control, 50 ng/ml): 30 fold
